Results published in patent US7910622B2, “Modulation of bacterial quorum sensing with synthetic ligands” (Wisconsin Alumni Research Foundation, priority 2007, dated 2011).

Columns and labels:
Experiment in all cases: cell-based
LuxR [1] = target: T1, LuxR (Aliivibrio fischeri, UniProt P35327); assay type: cell-based, Vibrio fischeri; conditions: for V. fischeri-LuxR Inhibition [%]: 5 μM synthetic ligand against 5 μM OHHL; for V. fischeri-LuxR Inhibition [%] / inhibition at 5 µM: V. fischeri ES114 (Δ-luxI), normalized to OHHL; for Inhibition (%): V. fischeri-LuxR, Library C primary antagonism screen; for inhibition at 5 µM: read-out: V. fischeri-LuxR Inhibition [%], 5 μM synthetic ligand against 5 μM OHHL; for IC50: LuxR IC50, determined against 5 μM OHHL
T1 construct: a Δ-luxI derivative of V. fischeri ES114, in which the native lux operon behaves as the bioluminescent reporter; endogenous in cells; host or cells: V. fischeri ES114 (Δ-luxI)
T1 sequence (P35327 whole entry): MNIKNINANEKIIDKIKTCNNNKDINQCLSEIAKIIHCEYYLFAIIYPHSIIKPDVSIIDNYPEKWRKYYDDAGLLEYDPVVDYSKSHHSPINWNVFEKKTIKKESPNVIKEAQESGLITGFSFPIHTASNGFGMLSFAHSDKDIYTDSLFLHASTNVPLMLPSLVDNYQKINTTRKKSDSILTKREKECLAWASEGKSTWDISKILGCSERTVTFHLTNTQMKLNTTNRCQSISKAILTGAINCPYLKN
Experimental: (§1) Luminescence assays. For agonism assays, an appropriate amount of AHL stock solution was added into a 96-well plate. An overnight culture of E. coli or V. fischeri was diluted 1:10 with appropriate media (LB plus 10 μg/mL tetracycline for E. coli; LBS for V. fischeri). A 200-μL portion of the diluted culture was added to each well of the plate. Plates were grown for 4-8 h with shaking (200 rpm; 30° C. for E. coli and RT for V. fischeri). Luminescence was measured using a multilabel plate reader and normalized to cell density. […] All assays were performed in triplicate. Graphpad Prism software was used to calculate IC50 and EC50 values.
(§2) Vibrio fischeri assay procedures. […] An overnight culture of V. fischeri ES114 (WT, Δ-luxI or Δ-luxR) was diluted 1:10 with LBS medium. A-200 μL portion of the diluted culture was added to each well of the plate. Plates were grown at RT with shaking (200 rpm) until the OD600=0.35-0.4 (4-6 h). Luminescence then was measured and normalized to cell density per well. […] All assays were performed in triplicate. IC50 and EC50 values were calculated using GraphPad Prism software using a sigmoidal curve fit.
(§3) V. fischeri reporter gene assay protocols. […] An overnight culture of V. fischeri ES114 (D-luxI) was diluted 1:10 with LBS medium. A 200-μL portion of the diluted culture was added to each well of the multititer plate. Plates were grown at RT with shaking (200 rpm) until the OD600=0.35-0.4 (4-6 h). Luminescence then was measured and normalized to cell density per well.
(§4) Dose response reporter gene assays. […] IC50 and EC50 values were calculated using GraphPad Prism software (v. 4.0) using a sigmoidal curve fit.
as §3, with “(Δ-luxI)” for “(D-luxI)”, “A200 μL” for “A 200-μL”, “incubated” for “grown”, “RT” for “RT with shaking (200 rpm)”
as §4

LasR [2] = target: T2, LasR (Pseudomonas aeruginosa, UniProt P25084); assay type: cell-based; conditions: for E. coli-LasR Inhibition [%]: 5 μM synthetic ligand against 7.5 nM OdDHL; for E. coli-LasR Inhibition [%] / inhibition at 5 µM: E. coli DH5α (pJN105L pSC11), normalized to OdDHL; for Inhibition (%): E. coli-LasR, Library C primary antagonism screen; for inhibition at 5 µM: read-out: E. coli-LasR Inhibition [%], 5 μM synthetic ligand against 7.5 nM OdDHL
T2 construct: expressed in transfected cells; host or cells: E. coli DH5α (pJN105L pSC11), arabinose-induced
T2 sequence (P25084 whole entry): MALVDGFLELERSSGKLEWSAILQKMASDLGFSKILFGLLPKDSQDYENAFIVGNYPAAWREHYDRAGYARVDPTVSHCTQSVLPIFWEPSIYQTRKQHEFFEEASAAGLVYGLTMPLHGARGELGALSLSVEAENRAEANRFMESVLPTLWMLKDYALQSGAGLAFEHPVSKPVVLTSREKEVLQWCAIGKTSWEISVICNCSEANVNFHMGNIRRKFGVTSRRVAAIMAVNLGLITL
Experimental: (§5) E. coli LasR reporter gene assay protocols. […] An overnight culture of E. coli DH5a (pJN105L pSC11) grown at 37° C. was subculture by diluting 1/10 in fresh LB medium containing 100 μg/mL ampicillin and 15 μg/mL gentamicin and shaking at 37° C. until OD600=0.3. Arabinose (4 mg/mL) was then added to induce the LasR promoter and a 200 μL-portion of this culture was added to each well of the multititer plate containing AHLs. Plates were grown at 37° C. for 2 hours in a rotary shaking incubator (200 rpm; OD600=0.45). The cultures were then assayed for activity following the identical β-galactosidase assay protocols used in the A. tumefaciens reporter gene assays.
as §4
(§6) E. coli LasR reporter gene assay protocols. […] An overnight culture of E. coli DH5α (pJN105L pSC11) was diluted 1:10 with fresh LB medium containing 100 μg/mL ampicillin and 15 μg/mL gentamicin. This sub-culture was incubated at 37° C. until OD600=0.3 (4-6 h). Arabinose (4 mg/mL) was then added to induce the LasR promoter, and a 200 μL portion of this culture was added to each well of the multititer plate containing AHLs. Plates were incubated at 37° C. until OD600=0.45 (4-6 h). The cultures were then assayed for LasR activity following the identical β-galactosidase assay protocols used in the A. tumefaciens reporter gene assays (see above).
as §4

LasR [3] = target: T2, LasR; conditions: for E. coli-LasR Activation [%]: 5 μM ligand; for EC50: read-out: LasR EC50; for Activation (%): E. coli-LasR, Library C primary agonism screen
Experimental: as §5, §4, §6, §4

LuxR [4] = target: T1, LuxR; design: species or system Vibrio fischeri; conditions: for V. fischeri-LuxR Activation [%]: 200 μM ligand; for V. fischeri-LuxR Activation [%] / activation at 200 µM: V. fischeri ES114 (Δ-luxI), normalized to OHHL; for Activation (%): V. fischeri-LuxR, Library C primary agonism screen; for activation at 200 µM: read-out: V. fischeri-LuxR Activation [%], 200 μM ligand
Experimental: as §1, §2, §3, §4
as §3, with “(Δ-luxI)” for “(D-luxI)”, “A200 μL” for “A 200-μL”, “incubated” for “grown”, “RT” for “RT with shaking (200 rpm)”
as §4

TraR = target: T3, TraR (Agrobacterium tumefaciens, UniProt P33905); conditions: for A. tumefaciens-TraR Activation [%]: 10 μM ligand; for A. tumefaciens-TraR Inhibition [%]: 10 μM synthetic ligand against 100 nM OOHL; for Activation (%) / Inhibition (%): A. tumefaciens-TraR; for Activation (%): Library C primary agonism screen; for Inhibition (%): Library C primary antagonism screen; for activation at 10 µM: read-out: A. tumefaciens-TraR Activation [%]
T3 construct: These strains lack their AHL synthase (I) genes, but retain their native R genes; endogenous in cells; host or cells: A. tumefaciens WCF47 (Δ-traI) with PtraI-lacZ plasmid pCF372
T3 sequence (P33905 whole entry): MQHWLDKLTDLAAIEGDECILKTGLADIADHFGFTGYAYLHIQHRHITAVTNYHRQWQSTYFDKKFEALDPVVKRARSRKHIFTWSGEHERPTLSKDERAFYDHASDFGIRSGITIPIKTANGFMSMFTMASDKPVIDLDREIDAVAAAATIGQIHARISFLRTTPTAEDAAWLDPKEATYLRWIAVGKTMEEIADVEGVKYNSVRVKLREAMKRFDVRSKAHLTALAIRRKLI
Experimental: A. tumefaciens reporter gene assay protocols. […] An overnight culture of A. tumefaciens WCF47 (pCF372) was diluted to an OD600 of 0.1 in fresh AB minimal medium containing 400 μg/mL octopine and 50 μg/mL streptomycin. A 200 μL-portion of the diluted culture was added to each well of the multititer plate containing AHLs. Plates were grown at 28° C. for 18-20 h in a rotary shaking incubator (200 rpm). The cultures were then assayed for β-galactosidase activity following the Miller assay method. Briefly, 200 μL aliquots of bacteria from each of the wells were added to wells of a polystyrene 96-well plate and the OD600 of each well was recorded. Next, 50 μL aliquots from each well were transferred to a solvent resistant 96-well plate containing 200 μL Z buffer, 8 μL CHCl3 and 4 μL 0.1% aq. sodium dodecylsulfate (SDS). This suspension was mixed via repetitive pipetting, after which the CHCl3 was allowed to settle. A 100-μL aliquot from each well was transferred to a fresh polystyrene 96-well plate, and 20 μL of substrate, o-nitrophenyl-β-D-galactopyranoside (ONPG, 4 μg/mL in phosphate buffer), was added at time zero. After the development of appropriate yellow color (ca. 15-35 min), the reaction was terminated by the addition of 50 μL of 1 M Na2CO3. Absorbance at 420 nm and 550 nm was measured for each well using a plate reader, and Miller units were calculated according to standard methods.
as §4
A. tumefaciens reporter gene assay protocols. […] An overnight culture of A. tumefaciens WCF47 (pCF372) was diluted 1:10 with fresh AB minimal medium containing 400 μg/mL octopine and 50 μg/mL streptomycin. A 200 μL portion of the diluted culture was added to each well of the multititer plate containing AHLs. Plates were incubated at 28° C. for 18-24 h. The cultures were then assayed for β-galactosidase activity following the Miller assay method. Briefly, 200 μL aliquots of bacteria from each of the wells were added to wells of a 96-well multititer plate, and the OD600 of each well was recorded. Next, 50 μL aliquots from each well were transferred to a solvent resistant 96-well multititer plate containing 200 μL Z buffer, 8 μL CHCl3 and 4 μL 0.1% aq. SDS. This suspension was mixed via repetitive pipetting, after which the CHCl3 was allowed to settle. A 100 μL aliquot from each well was transferred to a fresh 96-well multititer plate, and 20 μL of substrate, o-nitrophenyl-β-D-galactopyranoside (ONPG, 4 μg/mL in phosphate buffer), was added at time zero. After the development of appropriate yellow color (ca. 20-30 min), the reaction was terminated by the addition of 50 μL of 1 M Na2CO3. Absorbances at 420 nm and 550 nm were measured for each well using a plate reader, and Miller units were calculated according to standard methods.
as §4

[5] = E. coli DH5α (pJN105L pSC11), normalized to OdDHL
[6] = A. tumefaciens WCF47 (pCF372), normalized to OOHL

Row | Compound | V. fischeri-LuxR Inhibition [%] (LuxR [1]) | E. coli-LasR Inhibition [%] (LasR [2]) | E. coli-LasR Activation [%] (LasR [3]; [5]) | V. fischeri-LuxR Activation [%] (LuxR [4]) | A. tumefaciens-TraR Activation [%] (TraR; [6]) | A. tumefaciens-TraR Inhibition [%] (TraR; [6]) | other results
1 | 2-aminophenol analog of OdDHL [compound 7, reference compound] | 3% | 4 | 18 | 1 | 0 | 9 | –
2 | 4-N-tertbutoxycarbonyl-PHL [B25] | 33% | 10 | 27 | 2 | 0 | 11 | EC50 (LasR [3]): > 200 µM
3 | 4-amino PHL [B26] | 12% | 8 | 0 | 3 | 0 | 5 | –
4 | 4-amino PHL [C21] | – | – | – | – | – | – | Inhibition (%) (LuxR [1]): 12%; Inhibition (%) (LasR [2]): 8%; Activation (%) (LasR [3]): 0%; Activation (%) (LuxR [4]): 3%; Activation (%) (TraR): 0%; Inhibition (%) (TraR): 5%
5 | 4-azido PHL [B20] | – | 19 | 0 | 5 | 0 | – | –
6 | 4-hydroxy PHL [B27] | 12% | 7 | 0 | 2 | 0 | 3 | –
7 | 4-hydroxy PHL [C23] | – | – | – | – | – | – | Inhibition (%) (LuxR [1]): 12%; Inhibition (%) (LasR [2]): 7%; Activation (%) (LasR [3]): 0%; Activation (%) (LuxR [4]): 2%; Activation (%) (TraR): 0%; Inhibition (%) (TraR): 3%
8 | O=C(Cc1ccccc1)N[C@H]1CCOC1=O [11a] | abolished inhibitory activity | – | – | – | – | – | –
9 | O=C(Cc1ccc(-c2ccccc2)cc1)N[C@H]1CCOC1=O [11q, 4-phenyl PHL] | – | – | – | – | – | – | inhibition at 5 µM (LuxR [1]): ~80%
10 | O=C(Cc1ccc(C(F)(F)F)cc1)N[C@H]1CCOC1=O [11s, 4-trifluoromethyl PHL] | – | – | – | – | – | – | IC50 (LuxR [1]): 0.6 µM; inhibition at 5 µM (LuxR [1]): ~80%
11 | Nc1ccc(CC(=O)N[C@H]2CCOC2=O)cc1 [11v, 4-amino PHL] | lowest inhibitory activities | – | – | – | – | – | –
12 | O=C(Cc1ccc(O)cc1)N[C@H]1CCOC1=O [11w, 4-hydroxy PHL] | lowest inhibitory activities | – | – | – | – | – | –
13 | CCCCCCCCCC(=O)CC(=O)N[C@H]1CCOC1=O [A8, N-(3-oxo-dodecanoyl)-L-homoserine lactone, reference compound] | – | – | – | – | – | – | IC50 (LuxR [1]): 0.4 µM
14 | O=C(CC(=O)N[C@@H]1CCOC1=O)Cc1ccccc1 [A25] | – | −7 | 84 | 3 | 2 | 50 | EC50 (LasR [3]): 0.54 µM
15 | O=C(CCCc1ccccc1)N[C@@H]1CCOC1=O [A26] | 41% | – | 0 | 3 | 0 | 31 | –
16 | O=C(CCCc1ccccc1)N[C@@H]1CCOC1=O [D-3] | ca. 20% | – | – | – | – | – | –
17 | O=C(Cc1ccc(Br)cc1)N[C@@H]1CCOC1=O [D-5] | ca. 20% | – | – | – | – | – | –
18 | CCCCCC(=O)CC(=O)N[C@H]1CCOC1=O [compound 1, N-(3-oxo-octanoyl)-L-homoserine lactone, reference compound] | – | 50 | – | – | – | – | inhibition at 5 µM (LuxR [1]): 63%; IC50 (LasR [2]; determined against 7.5 nM OdDHL, read-out: LasR IC50): 0.11 µM; inhibition at 5 µM (LasR [2]): ≥ 50%; activation at 200 µM (LuxR [4]): ~25%; EC50 (TraR; EC50 of autoinducer in A. tumefaciens WCF47 (pCF372), value in method text): 0.1 µM; EC50 (TraR; TraR EC50): 0.2 µM; activation at 10 µM (TraR): 100%
19 | CCCC(=O)CC(=O)N[C@H]1CCOC1=O [compound 3] | – | – | – | – | – | – | inhibition at 5 µM (LasR [2]): 15%; activation at 5 µM (LasR [3]; read-out: E. coli-LasR Activation [%], 5 μM ligand, E. coli DH5α (pJN105L pSC11), normalized to OdDHL): 1%; EC50 (LuxR [4]; LuxR EC50, V. fischeri ES114 (Δ-luxI)): 3 µM; activation at 200 µM (LuxR [4]): 100%; activation at 10 µM (TraR): 1%; inhibition at 10 µM (TraR; read-out: A. tumefaciens-TraR Inhibition [%], 10 μM synthetic ligand against 100 nM OOHL, A. tumefaciens WCF47 (pCF372), normalized to OOHL): 89%
